Laboratory results taken from the CheMixHub ionic liquid set.
Values joined by “and” are separate entries in the source; they are usually repeats but may differ in a detail not shown here. Identical values can stand only once.

Assay: xn = mol fraction of the nth substance listed

CC[n+]1ccn(C)c1.O=S(=O)([O-])C(F)(F)F + O=S(=O)([O-])C(F)(F)F.[Li+]
101 kPa, x1 = 1
Settings	electrical conductivity [S/m]
288.15 K	0.605
298.15 K	0.859
333.15 K	2.24

CC[n+]1ccn(C)c1.O=S(=O)([O-])C(F)(F)F + O=[N+]([O-])[O-].[Li+]
101 kPa, x1 = 1
Settings	electrical conductivity [S/m]
288.15 K	0.605
298.15 K	0.859
333.15 K	2.24

CCCC[P+](CCCC)(CCCC)CCCC.[Br-] + OCC(O)CO
101.3 kPa, x1 = 0.333
Settings	viscosity [mPa·s]
293.15 K	468
298.15 K	329
303.15 K	235
308.15 K	172
313.15 K	116
318.15 K	97.1
323.15 K	68.4

CC[n+]1ccn(C)c1.O=S(=O)([O-])C(F)(F)F + OCC(O)CO
100 kPa
Settings	electrical conductivity [S/m]	viscosity [mPa·s]
293.15 K, x1 = 0.002	–	1372
293.15 K, x2 = 0.199	–	48.9
293.15 K, x2 = 0.605	–	97.9
293.15 K, x2 = 0.698	–	146.4
293.15 K, x2 = 0.962	–	968
298.15 K, x1 = 0.002	0.000274	–
298.15 K, x1 = 0.004	0.00056	–
298.15 K, x1 = 0.011	0.00141	–
298.15 K, x1 = 0.018	0.00247	–
298.15 K, x2 = 0.401	0.68	45.4
303.15 K, x2 = 0.962	–	425
313.15 K, x1 = 0.002	0.00084	–
313.15 K, x1 = 0.004	0.00176	–
313.15 K, x1 = 0.011	0.00439	–
313.15 K, x1 = 0.018	0.0079	243
313.15 K, x2 = 0.299	1.27	23.4

CCCC[P+](CCCC)(CCCC)CCCC.[Br-] + OCC(O)CO + O
viscosity [mPa·s], 101.3 kPa
Settings	x1 = 0.03663, x2 = 0.07337	x1 = 0.06194, x2 = 0.1241	x1 = 0.09824, x2 = 0.1968	x1 = 0.1305, x2 = 0.2615	x1 = 0.1725, x2 = 0.3455	x1 = 0.1845, x2 = 0.3695	x1 = 0.2344, x2 = 0.4696	x1 = 0.2594, x2 = 0.5196	x1 = 0.3007, x2 = 0.6023	x1 = 0.333, x2 = 0.667
293.15 K	9.46	24.1	60.1	99	156	170	249	300	393	468
298.15 K	7.51	18.5	45.8	72.1	109	120	176	212	276	329
303.15 K	6.25	15	35.7	55	79.9	90.9	130	154	198	235
308.15 K	5.21	12	28.3	42.6	62.8	67.8	96.5	118	145	172
313.15 K	4.15	9.9	22.1	32.4	47	49.3	66.5	88.4	99	116
318.15 K	3.74	8.49	18	26.4	38.4	41.4	57.6	67.5	83.2	97.1
323.15 K	3.26	7.02	14.5	21	29	31.2	42.5	50.4	57.9	68.4

CCCC[P+](CC)(CCCC)CCCC.[Br-] + OCCO
101 kPa, x1 = 0.333
Settings	viscosity [mPa·s]
303.15 K	43.82
313.15 K	29.04
323.15 K	20.08
333.15 K	14.44
343.15 K	10.69
353.15 K	8.22

CCCC[P+](CCCC)(CCCC)CCCC.[Br-] + OCCO
101.3 kPa, x1 = 0.333
Settings	viscosity [mPa·s]
293.15 K	122
323.15 K	29.9

CC[n+]1ccn(C)c1.O=S(=O)([O-])C(F)(F)F + OCCO
100 kPa
Settings	electrical conductivity	viscosity [mPa·s]
293.15 K, x1 = 0.001	–	20.7
293.15 K, x1 = 0.007	–	20.4
293.15 K, x2 = 0.974	–	19.6
298.15 K, x1 = 0.001	0.0058 S/m and 0.0109 S/m	16.9
298.15 K, x2 = 0.798	–	16.62
303.15 K, x1 = 0.013	–	13.4
303.15 K, x2 = 0.0943	–	30.94
303.15 K, x2 = 0.2	–	23.4
308.15 K, x2 = 0.6019	–	13.71
308.15 K, x2 = 0.8964	–	11.78
313.15 K, x1 = 0.001	0.01 S/m and 0.0188 S/m	9.53
313.15 K, x2 = 0.408	–	13.87
313.15 K, x2 = 0.497	–	10.6
313.15 K, x2 = 0.808	1.51 S/m	8
318.15 K, x2 = 0.0943	–	19.42
323.15 K, x2 = 0.0943	–	16.91
323.15 K, x2 = 0.2021	–	13.96
323.15 K, x2 = 0.408	–	11.12

CCCC[P+](CCCC)(CCCC)CCCC.[Br-] + OCCO + O
viscosity [mPa·s], 101.3 kPa
Settings	x1 = 0.0383, x2 = 0.0767	x1 = 0.06893, x2 = 0.1381	x1 = 0.09557, x2 = 0.1914	x1 = 0.1302, x2 = 0.2608	x1 = 0.1675, x2 = 0.3355	x1 = 0.1968, x2 = 0.3942	x1 = 0.2368, x2 = 0.4742	x1 = 0.2634, x2 = 0.5276	x1 = 0.3054, x2 = 0.6116	x1 = 0.333, x2 = 0.667
293.15 K	4.67	11.5	20.5	35.1	50.8	62	74.1	82.3	105	122
298.15 K	3.8	9.08	16.1	27.2	38.8	48.1	57	64.1	78.1	93.4
303.15 K	3.15	7.34	13	21.7	31	38.2	44.5	49.4	63.7	72.4
308.15 K	2.74	6.11	10.6	17.7	24.9	30.1	35.3	39.5	50.2	56.9
313.15 K	2.35	5.21	8.88	14.4	20.5	24.5	28.3	32.2	39.9	45.3
318.15 K	2.08	4.43	7.33	11.9	16.8	20.1	23.1	26.4	32.4	36.6
323.15 K	1.84	3.8	6.34	10.1	13.9	16.8	19	21.9	26.6	29.9

CCCC[P+](CC)(CCCC)CCCC.[Br-] + OCCOCCO
101 kPa, x1 = 0.333
Settings	viscosity [mPa·s]
333.15 K	23.07
353.15 K	12.73
